The source of these data is US11780812B2, “Oxopyridine derivatives useful as aminocarboxymuconate semialdehyde decarboxylase (ACMSD) inhibitors” (OrsoBio, Inc., priority 2016, dated 2023).

Chain of human ACMSD (Q8TDX5 whole entry): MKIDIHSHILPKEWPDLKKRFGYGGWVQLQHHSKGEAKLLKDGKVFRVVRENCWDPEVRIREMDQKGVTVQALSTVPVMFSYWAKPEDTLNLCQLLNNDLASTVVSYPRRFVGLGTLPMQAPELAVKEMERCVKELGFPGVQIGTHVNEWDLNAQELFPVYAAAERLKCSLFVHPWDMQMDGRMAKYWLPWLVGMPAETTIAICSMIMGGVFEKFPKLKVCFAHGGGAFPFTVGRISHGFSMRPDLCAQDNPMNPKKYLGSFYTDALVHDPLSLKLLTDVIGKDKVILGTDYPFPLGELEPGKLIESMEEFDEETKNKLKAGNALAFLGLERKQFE

The test has as its target human ACMSD (Homo sapiens (Human), UniProt Q8TDX5). In words: Human ACMSD-1 inhibitor assay (coupled 3-HAO/ACMSD, absorbance at 360 nm). To be noted: read-out: hACMSD IC50; human ACMSD 6 μg/ml, 50 mM MES pH 6.0, 28° C., four-parameter dose-response fit.
Protocol: A solution of 7.8 μg/ml 3-hydroxyanthranilate 3,4-dioxygenase (3-HAO) with protein dilution buffer (50 mM 4-Morpholineethanesulfonic acid “MES” pH 6.0) and a solution of 6 μg/ml Human 2-amino-3-carboxymuconate-6-semialdehyde decarboxylase (human ACMSD) with protein dilution buffer (50 mM MES pH 6.0) were prepared separately. A serial 2-fold dilution of test compounds, from 512 nM until 0.5 nM were prepared.
The plate was placed into a SpectraMax Plus 384 Microplate Reader, Molecular Devices with the temperature set to 28° C. The absorbance at 360 nm for 10 min with 10 seconds interval was monitored and recorded.
To a 96-well plate was added 50 μl of 6 μg/ml human ACMSD with series concentrations of the test compound. The absorbance was recorded at 360 nm for 10 min with 10 seconds interval. The data was analyzed in GraphPad Prism 6. A four-parameter dose-response curve was fitted. “Hill Slope” was constrained between −0.5 and −3, and such constrains was indicated when applied.
Broadly, the IC50 is the concentration that inhibits the measured activity by half. On to `N#Cc1c(C(F)(F)F)cc(=O)[nH]c1SCc1nnn[nH]1` [Ex. 43, 2-(((1H-tetrazol-5-yl)methyl)thio)-6-oxo-4-(trifluoromethyl)-1,6-dihydropyridine-3-carbonitrile], for which the IC50 was determined as 4 nM.

In the case of `Cc1ccc(C(=O)O)cc1CSc1[nH]c(=O)cc(C(F)(F)F)c1C#N` [Ex. 44, 3-((3-cyano-6-oxo-4-(trifluoromethyl)-1,6-dihydropyridin-2-ylthio)methyl)-4-methylbenzoic acid], the IC50 was 510 nM.

On to `N#Cc1c(C(F)(F)F)cc(=O)[nH]c1SCc1cc(-c2nnn[nH]2)ccc1Cl` [Ex. 45, 2-(2-chloro-5-(1H-tetrazol-5-yl)benzylthio)-6-oxo-4-(trifluoromethyl)-1,6-dihydropyridine-3-carbonitrile], for which the IC50 is 4 nM.

For `COc1c(C(F)(F)F)c(C#N)c(SCC(=O)O)[nH]c1=O` [Ex. 46, 2-(3-cyano-5-methoxy-6-oxo-4-(trifluoromethyl)-1,6-dihydropyridin-2-ylthio)acetic acid], the IC50 came to 8 nM.

For the molecule `Cc1c(C(F)(F)F)c(C#N)c(SCc2nnn[nH]2)[nH]c1=O` [Ex. 47, 2-(((1H-tetrazol-5-yl)methyl)thio)-5-methyl-6-oxo-4-(trifluoromethyl)-1,6-dihydropyridine-3-carbonitrile], the IC50 was determined as 7 nM.

In the case of `N#Cc1c(SCc2nnn[nH]2)[nH]c(=O)c(F)c1C(F)(F)F` [Ex. 48, 2-((1H-tetrazol-5-yl)methylthio)-5-fluoro-6-oxo-4-(trifluoromethyl)-1,6-dihydropyridine-3-carbonitrile], the IC50 came out at 2 nM.

In the case of `N#Cc1c(-c2cccs2)cc(=O)[nH]c1SCc1cccc(-c2nnn[nH]2)c1` [Ex. 49, 2-((3-(1H-tetrazol-5-yl)benzyl)thio)-6-oxo-4-(thiophen-2-yl)-1,6-dihydropyridine-3-carbonitrile], the IC50 came to 6 nM.

For `N#Cc1c(-c2ccccc2)cc(=O)[nH]c1SCc1cccc(-c2nnn[nH]2)c1` [Ex. 50, 2-((3-(1H-tetrazol-5-yl)benzyl)thio)-6-oxo-4-phenyl-1,6-dihydropyridine-3-carbonitrile], the IC50 is 3 nM.

As to `O=c1cc(C(F)(F)F)cc(SCc2nnn[nH]2)[nH]1` [Ex. 52, 6-((1H-tetrazol-5-yl)methylthio)-4-(trifluoromethyl)pyridin-2(1H)-one], the IC50 worked out at 130 nM.

With `N#Cc1c(Cc2ccccc2)cc(=O)[nH]c1SCc1nn[nH]n1` [Ex. 53, 2-(((2H-tetrazol-5-yl)methyl)thio)-4-benzyl-6-oxo-1,6-dihydropyridine-3-carbonitrile], the IC50 is 2 nM.

For the molecule `N#Cc1c(-c2ccsc2)cc(=O)[nH]c1SCc1cccc(-c2nnn[nH]2)c1` [Ex. 54, 2-(3-(1H-tetrazol-5-yl)benzylthio)-6-oxo-4-(thiophen-3-yl)-1,6-dihydropyridine-3-carbonitrile], the IC50 was 9 nM.

`Cc1cccc(-c2cc(=O)[nH]c(SCc3cccc(-c4nnn[nH]4)c3)c2C#N)c1` [Ex. 55, 2-((3-(1H-tetrazol-5-yl)benzyl)thio)-6-oxo-4-(m-tolyl)-1,6-dihydropyridine-3-carbonitrile]: the IC50 stood at 3 nM.

In the case of `Cc1cc(=O)[nH]c(SCc2cccc(C(=O)O)c2)c1C#N` [Ex. 56, 3-(((3-cyano-4-methyl-6-oxo-1,6-dihydropyridin-2-yl)thio)methyl)benzoic acid], the IC50 turned out to be 6750 nM.

On to `Cc1cc(=O)[nH]c(SCC(=O)O)c1C#N` [reference compound], for which the IC50 stood at 2990 nM.
